{"source": "patent US7368279B2", "about": "“Three dimensional bioengineered smooth muscle tissue and sphincters and methods therefor” (The Regents of The University of Michigan, priority 2004, dated 2008)", "key": {"[1]": {"system": "isolated smooth muscle cells from the rabbit IAS", "assay": "Acetylcholine-induced contraction of isolated IAS smooth muscle cells (decrease in cell length)", "type": "cell-based", "conditions": "for contraction, percent decrease in cell length from control: 10^−7 M acetylcholine, HEPES buffer; for decrease in cell length: acetylcholine, 0 Ca2+/2 mM EGTA HEPES buffer", "from_the_text": "Smooth muscle cells were isolated from the internal anal sphincter (IAS) of New Zealand White rabbits as described previously (Bitar et al., Am J Physiol 260: G537-G542, 1991; Bitar et al., Am J Physiol 242: G400-G407, 1982). Briefly, the IAS, consisting of the most distal 3 mm of the circular muscle layer, ending at the junction of skin and mucosa, was removed by sharp dissection. The sphincter was rapidly cleaned and striped of connective tissue in ice cold carbonated Krebs solution containing 2% penicillin-streptomycin. The tissue was cut into small pieces and transferred to a 100 mm plate containing 15 ml of HEPES buffer (pH 7.4; NaCl (115 mM), KCl (5.7 mM), KH2PO4 (2.0 mM), HEPES (24.6 mM), CaCl2 (1.9 mM), MgCl2 (0.6 mM), glucose (5.6 mM), 0.01% soybean trypsin inhibitor, and 0.184 (wt/vol) DMEM) with 0.1% collagenase type II (Worthington Biochemical Corp., Lakewood, N.J.) for digestion in an incubator (37° C. with 5% CO2) for 1 hour. Fresh HEPES buffer (15 ml) with collagenase was added and the contents of the plate were mechanically dissociated using a 10 ml pipette and incubated for 1 additional hour. After the second digestion period, the cells were collected, centrifuged at 800×g for 10 minutes and the supernatant discarded. The cells were washed (3×) a to ensure removal of excess collagenase and ultimately re-suspended in either HEPES buffer or 0 Ca^2+/2 mM EGTA HEPES buffer (HEPES without CaCl2 and containing 2 mM EGTA). To determine the effect of acetylcholine on contraction of isolated muscle cells, acetylcholine (10^−7 M) was added to a suspension of isolated smooth muscle cells for 30 seconds or 4 minutes with untreated cells as controls. The reaction was stopped and cells were fixed by the addition of 0.1 ml of acrolein at a final concentration of 0.1%. Individual cell lengths were measured by computerized image micrometry (Bitar et al., Am J Physiol 242: G400-G407, 1982. Bitar et al., Science 216: 531-533, 1982). The length of cells in the control state or after addition of acetylcholine was obtained by measuring 30-50 cells encountered randomly in successive microscopic fields from each of three separate experiments. The contractile response is defined as the decrease in the average length of the cells counted and is expressed as the percent change from the control length."}, "bioengineered IAS rings": {"system": "bioengineered IAS rings", "assay": "Isometric force of bioengineered IAS rings from adult, old and phosphomimic-HSP27 transfected old rat cells", "type": "cell-based", "protocol": "To measure the passive baseline force, the differentiation media in the plate containing the bioengineered sphincter was replaced with 37° C. Krebs solution (NaCl (119 mM), KCl (4.6 mM), NaHCO3 (15 mM), CaCl2 (1.5 mM), MgCl2 (1.2 mM), […], and glucose (11 mM)) and the plate was placed on a heated aluminum platform, which maintained a temperature of 37° C. until the testing was complete. For contractility measurements, one end of the bioengineered sphincter was anchored by a stainless steel pin (10 mm×0.1 mm diameter) to the PDMS substrate within the plate, while another stainless steel pin was bent in the shape of a hook and attached by canning wax to a force transducer (resolution of 1.4 μN and range of 2mN) as previously described (Dennis et al., In Vitro Cellular & Developmental Biology Animal 36: 327-335, 2000, Macpherson et al., J Physiol 500: 523-533, 1997) and as depicted in FIG. 1 (Panels F and G). The bioengineered sphincter was stretched approximately 50% of its resting length using a three-axis micromanipulator. The ring was allowed to sit for 20 minutes in order to reestablish a stable baseline level of force (Pb), which was measured as the average baseline passive force preceding stimulation. All force measurements were collected at 100 samples/second for 60 seconds and recorded using a computer with LabVIEW data acquisition software (National Instruments, Austin, Tex.). A median filter of rank 2 was applied to all raw force data before being stored to minimize digitization noise without causing a phase delay for rapidly changing forces. The peak isometric force (ΔP) was determined by subtracting the Pb from the total force values. Specific force (sΔP) was calculated by dividing ΔP by the CSA. Data analysis was done using LabVIEW and Microsoft Excel software programs. Each measurement was repeated at least three times and the mean value was recorded. Bioengineered sphincter rings using smooth muscle cells isolated from IAS of adult and old rats were generated as described in Example 2 to study the molecular mechanism of aging on sphincteric smooth muscle. […] This corresponds to the previously described acetylcholine-induced contraction of human IAS muscle strips (16, 17, 27). […] Phosphomimic-HSP27 was introduced into the sphincteric smooth muscle cells from old rats. […] To test this hypothesis on a physiological level, bioengineered sphincter rings were made from phosphomimic-HSP27 transfected-IAS smooth muscle cells of old rats and the contractile response was assessed."}}}
{"smiles": "CC(=O)OCC[N+](C)(C)C", "note": "[acetylcholine]", "values": [{"measurement": "contraction, percent decrease in cell length from control", "setting": "[1]; 30 seconds", "result": "28.85±3.20", "unit": "%"}, {"measurement": "contraction, percent decrease in cell length from control", "setting": "[1]; 4 minutes", "result": "27.09±4.43", "unit": "%"}, {"measurement": "decrease in cell length", "setting": "[1]; 30 seconds", "result": "0.5±4.47", "unit": "%"}, {"measurement": "decrease in cell length", "setting": "[1]; 4 minutes", "result": "4±3.91", "unit": "%"}, {"measurement": "maximum force of old rings, fold less than adult rings (FIG. 5 panel B)", "setting": "bioengineered IAS rings; 10^−6 M acetylcholine", "result": "approximately 3 fold"}, {"measurement": "average ΔP / force generated", "setting": "bioengineered IAS rings; adult rat IAS rings, 10^−6 M acetylcholine", "result": "8.925±2.4", "unit": "μN"}, {"measurement": "maximum force generated (FIG. 5 panel A)", "setting": "bioengineered IAS rings; adult rat rings, n=3", "result": "10.4±1.27"}, {"measurement": "force generated", "setting": "bioengineered IAS rings; old rat IAS rings, 10^−6 M acetylcholine", "result": "5.55±1.1", "unit": "μN"}, {"measurement": "maximum force generated (FIG. 5 panel A)", "setting": "bioengineered IAS rings; old rat rings, n=4", "result": "5.5±1.09"}, {"measurement": "less force generated by old rings than adult rings", "setting": "bioengineered IAS rings; stimulated with acetylcholine", "result": "approximately 50%"}]}
